This data set can be described thus: refractive index (Na D-line) (dimensionless). The note with it: 101.33 kPa, Liquid, Standard Abbe refractometry.

± gives the expanded uncertainty stated by the source.

In the case of `C1=CC2C3C=CC(C3)C2C1` (configuration not stated) [3a,4,7,7a-tetrahydro-4,7-methanoindene], the refractive index is, setting by setting: (308.15 K) 1.5069 ± 0.0004; (313.15 K) 1.5045 ± 0.0004; (318.15 K) 1.5019 ± 0.0004; (323.15 K) 1.4991 ± 0.0004.
Consider `CCOC(=O)c1ccccc1C(=O)OCC` [diethyl phthalate], for which the refractive index was 1.507 ± 0.0004 (283.15 K); 1.5048 ± 0.0004 (288.15 K); 1.5027 ± 0.0004 (293.15 K); 1.5005 ± 0.0004 (298.15 K); 1.4984 ± 0.0004 (303.15 K); 1.4962 ± 0.0004 (308.15 K). Further, the refractive index reads like this: (313.15 K) 1.4939 ± 0.0004; (318.15 K) 1.4917 ± 0.0004; (323.15 K) 1.4897 ± 0.0004.
As to `C=Cc1ccccc1` [styrene], the refractive index (283.15 K) is on record as 1.5533 ± 0.0004; the refractive index (288.15 K) came to 1.5505 ± 0.0004; the refractive index (293.15 K) came to 1.5472 ± 0.0004; the refractive index (298.15 K) was determined as 1.544 ± 0.0004; the refractive index (303.15 K) is recorded as 1.5409 ± 0.0004; the refractive index (308.15 K) was 1.538 ± 0.0004. Moreover, the refractive index (313.15 K) was 1.5352 ± 0.0004, the refractive index (318.15 K) was found to be 1.5321 ± 0.0004 and the refractive index (323.15 K) stood at 1.5291 ± 0.0004.

For orientation: refractive index means the speed of light in vacuum divided by its phase velocity in the sample.

The values are drawn from the NIST ThermoML archive (doi:10.1021/acs.jced.6b00901).
